Measured values published in US20240400555A1 (Initial Therapeutics, Inc., priority 2023, published 2024).
pIC50: −log10 of the molar value.

System: MV-4-11 cells
Test: Cell Viability Assay in MV-4-11 Cells
Assay type: cell-based
Details: Homo sapiens, MV4-11, 72 h
In short: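 Luminescent ATP read-out (CellTiter-Glo) after 72 h compound treatment of MV-4-11 leukaemia cells (7,000 per well, IMDM plus 10% FBS). Values expressed relative to DMSO control and derived by four-parameter non-linear regression.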

For `CNC(=O)c1ccc2c(N(C(=O)c3ccc(-c4cn(C)nn4)cc3F)[C@@H]3CCCNC3)nccc2c1` [Example 688, (R)-1-(2-fluoro-4-(1-methyl-1H-1,2,3-triazol-4-yl)-N-(piperidin-3-yl)benzamido)-N-methylisoquinoline-6-carboxamide], the pIC50 was under 5.35.

Same assay, conditions: Homo sapiens, MV4-11, 72 h, MV-4-11 cells, 72 h, Cell-Titer Glo; read-out: IC50

Compared with `Cc1nnc(-c2ccc(C(=O)N(c3nccc4c(C)ccc(C)c34)[C@@H]3CCCNC3)cc2)s1` [Example 878, N-(5,8-dimethyl-1-isoquinolyl)-4-(5-methyl-1,3,4-thiadiazol-2-yl)-N-[(3R)-3-piperidyl]benzamide], `Cc1nnc(-c2ccc(C(=O)N(c3nccc4scc(Cl)c34)[C@@H]3CCCNC3)c(F)c2)s1` [Example 653, N-(3-chlorothieno[3,2-c] 690yridine-4-yl)-2-fluoro-4-(5-methyl-1,3,4-thiadiazol-2-yl)-N-[(3R)-3-piperidyl] benzamide] is 0.49 log units higher in pIC50: 6.25 for the first, 6.74 for the second. The second is the more potent here.

First: O=C(c1ccc(-n2nnc3cccnc32)cc1F)N(c1nccc2cc(-c3nn[nH]c3CO)ccc12)[C@@H]1CCCNC1 [Example 530, (R)-4-(3H-[1,2,3]triazolo[4,5-b]pyridin-3-yl)-2-fluoro-N-(6-(5-(hydroxymethyl)-1H-1,2,3-triazol-4-yl)isoquinolin-1-yl)-N-(piperidin-3-yl)benzamide]
Second: O=C(O)CCc1ccc2c(N(C(=O)c3ccc(-n4nnc5cccnc54)cc3F)[C@@H]3CCCNC3)nccc2c1 [Example 407]
The pIC50 of the first is higher: 5.80 for the first, under 5.00 for the second.

First: Cc1cccc2ccnc(N(C(=O)c3ccc(Nc4nccc(N(C)C5CCOCC5)n4)cc3F)[C@@H]3CCCNC3)c12 [Example 957, (R)-2-fluoro-4-(4-(methyl(tetrahydro-2H-pyran-4-yl)amino)pyrimidin-2-ylamino)-N-(8-methylisoquinolin-1-yl)-N-(piperidin-3-yl)benzamide]
Second: Cc1cc(F)cc2ccnc(N(C(=O)c3ccc(Nc4ncccn4)cc3F)[C@@H]3CCCNC3)c12 [Example 564, (R)-2-fluoro-N-(6-fluoro-8-methylisoquinolin-1-yl)-N-(piperidin-3-yl)-4-(pyrimidin-2-ylamino)benzamide]
The pIC50 of the first is 0.21 log units lower: 7.64 for the first, 7.85 for the second. The second is the more potent here.

Going from `O=C(c1ccc(-n2nnc3cccnc32)cc1F)N(c1nccc2sc(-c3nccs3)cc12)[C@@H]1CCCNC1` [Example 417, 2-fluoro-N-[(3R)-3-piperidyl]-N-(2-thiazol-2-ylthieno[3,2-c]pyridin-4-yl)-4-(triazolo[4,5-b]pyridin-3-yl)benzamide] to `O=C(c1ccc(-n2nnc3cccnc32)cc1F)N(c1nccc2sc(-c3ccc4ncnn4c3)cc12)[C@@H]1CCCNC1` [Example 434, (R)-4-(3H-[1,2,3]triazolo[4,5-b]pyridin-3-yl)-N-(2-([1,2,4]triazolo[1,5-a]pyridin-6-yl)thieno[3,2-c]pyridin-4-yl)-2-fluoro-N-(piperidin-3-yl)benzamide], the pIC50 rises from 6.41 to 7.04 (0.63 log units).

Compared with `COCCc1nnc(-c2ccc(C(=O)N(c3nccc4scc(C)c34)[C@@H]3CCCNC3)c(F)c2)s1` [Example 634, (R)-2-fluoro-4-(5-(2-methoxyethyl)-1,3,4-thiadiazol-2-yl)-N-(3-methylthieno[3,2-c]pyridin-4-yl)-N-(piperidin-3-yl)benzamide], `CN(C)C(=O)/C=C/c1cc2c(N(C(=O)c3ccc(-n4nnc5cccnc54)cc3F)[C@@H]3CCCNC3)nccc2s1` [Example 526, N-[2-[(E)-3-(dimethylamino)-3-oxo-prop-1-enyl]thieno[3,2-c]pyridin-4-yl]-2-fluoro-N-[(3R)-3-piperidyl]-4-(triazolo[4,5-b]pyridin-3-yl)benzamide] is 0.79 log units lower in pIC50: 6.85 for the first, 6.06 for the second. The first is the more potent here.

For `C=CC(=O)NC1CCCN(C(=O)N(c2nccc3cccc(C)c23)[C@@H]2CCCNC2)C1` (stereo partly drawn) [Example 399, 3-acrylamido-N-(8-methylisoquinolin-1-yl)-N—((R)-piperidin-3-yl)piperidine-1-carboxamide], the pIC50 was 5.96.
